Drawing on ChEMBL document CHEMBL1154128, “Characterization of the microbial community and polyketide biosynthetic potential in the palmerolide-producing tunicate Synoicum adareanum” (2008), this text covers CC50 for one compound.

For this experiment, the system named is UACC-62. In words: Cytotoxicity against human UACC62 cells. Conditions: read-out: LC50 (the source's name). In kind it is functional.

For `CC(C)=CC(=O)N/C=C/C(C)=C/[C@@H](C)[C@H]1C/C(C)=C/C=C/CC[C@H](OC(N)=O)[C@@H](O)/C=C/[C@@H](O)CCC/C=C/C(=O)O1` [PALMEROLIDE A], the CC50 is 18 nM.
